From paper PMC6781309, “Assessing Drug Interaction and Pharmacokinetics of Loxoprofen in Mice Treated with CYP3A Modulators” (Pharmaceutics, 2019)
Several values for one entry are separate records, joined by “and”; a condition that tells them apart may be missing. Equal entries are not always repeated. Where two headings read alike, the source gives them in different places.

Assays:
[1] = Plasma pharmacokinetics of LOX, cis-LOX and trans-LOX after oral LOX in mice pretreated with DEX, KTC or vehicle; format: in vivo, Male ICR mice; conditions: for AUC(0-inf) / AUC(0-t) / Cmax / half-life / Tmax: male, ICR, mouse, plasma, po, 20 mg/kg, mouse plasma, LOX 20 mg/kg oral, mean ± SE, n = 3; for Cmax: read-out: Cmax; for half-life: read-out: T1/2 (elimination half-life); for Tmax: read-out: Tmax (converted)
Procedure: The acclimatized animals were divided into eight groups, with each group containing 3 mice: groups I and II, vehicle (corn oil); groups III and IV, DEX-treated; groups V and VI, vehicle (10% Ethanol); and groups VII and VIII, KTC-treated group. […] Then, animals were fasted for 12 hours with free access to water before starting the experiment. […]
After the oral administration of LOX, blood from groups I, III, V, and VII was collected from the tail at 0, 5, 10, 15, 30, 60, 120, and 240 min post-administration and placed into sodium heparin-containing tubes. After the last blood collection, the mice were sacrificed by cervical dislocation. Plasma was then prepared by centrifuging the blood at 4000× g for 15 min at 4 °C and stored at −80 °C until analysis. For analysis, each sample was prepared by mixing plasma (10 µL) and 90 µL of ACN containing 0.1% formic acid and 5 µM of tolbutamide as an internal standard (IS). […] Finally, 10 µL of sample supernatant was injected into the LC-MS/MS system. The PK parameters (the maximum plasma concentration [Cmax], time to reach the maximum plasma concentration [Tmax], elimination half-life [T1/2], and area under the plasma concentrations [AUC]) were analyzed by WinNonlin software (Version 2.1, Scientific Consulting, Louisville, KY, USA).
A Shimadzu Prominence UFLC system (Kyoto, Japan) connected to a TSQ vantage triple quadrupole mass spectrometer with a HESI-II spray source incorporated with a DGU-20A5 degasser, an LC-20AD pump, a SIL-20A autosampler, and a CTO-20A column oven was used for the analyses. A shim-pack GIS C18 column (150 × 3.0 mm, […]) was used to separate analytes in the samples. Mobile phases A and B were composed of water with formic acid and ACN with 0.1% formic acid, respectively, and the flow rate was 0.50 mL/min at 40 °C. The gradient conditions were as follows: 20% of B between 0 and 0.25 min, 20–80% of B between 0.25 and 9.75 min, 80–20% of B between 9.75 and 10 min, and 20% of B between 10 and 13 min. The MS was operated under the following conditions: electrospray ionization in negative mode at 3.0 kV, capillary temperature at 350 °C, vaporizer temperature at 300 °C, sheath gas pressure at 35 Arb, and auxiliary gas pressure at 10 Arb. Finally, Xcalibur software (Thermo Fisher Scientific Inc., Waltham, MA, USA) was used for data analysis.

[2] = test system: CYP3A; parameters: method as in PMID 17965516; conditions: human liver microsomes; cited from earlier work
[3] = Relative concentration of LOX and its metabolites in hepatic portal vein plasma 10 min post-LOX (HRMS); format: in vivo, Male ICR mice; conditions: hepatic portal vein plasma 10 min after LOX 20 mg/kg oral, n = 3; for Relative concentration in plasma (DEX average % of area, VH corn oil = 100): DEX 40 mg/kg i.p. 3 days; for Relative concentration in plasma (KTC average % of area, VH 10% ethanol = 100): KTC 60 mg/kg i.p. single dose
Procedure: The acclimatized animals were divided into eight groups, with each group containing 3 mice: groups I and II, vehicle (corn oil); groups III and IV, DEX-treated; groups V and VI, vehicle (10% Ethanol); and groups VII and VIII, KTC-treated group. […] Then, animals were fasted for 12 hours with free access to water before starting the experiment. After fasting, LOX (20 mg/kg) was administered orally to […].
Similarly, blood from groups II, IV, VI, and VIII was collected from the hepatic portal vein 10 min post-LOX administration to identify metabolites of LOX and to analyze drug–drug interactions. Plasma from these samples was prepared as explained above. Then, 300 µL of ACN having 0.1% formic acid and 5 µM of the IS were mixed with 100 µL of each plasma sample. […] Supernatants were transferred into tubes and dried using a Labconco Speed Vac (Labconco Corporation, Kansas City, MO, USA). […] Each supernatant was transferred into an LCMS vial, and 5 µL were injected into a high-resolution mass spectrometer (HRMS).
HRMS coupled with ultrahigh performance liquid chromatography (UHPLC) was used to detect hydroxy-LOX and other metabolites of LOX. The UHPLC system, Dionex Ultimate 3000 (Dionex Softron GmbH, Germering, Germany) consisted of an HPG-3200SD Standard binary pump, a WPS 3000 TRS analytical autosampler, and a TCC-3000 SD column compartment. In this experiment, the HRMS was a Q Exactive Focus quadrupole-Orbitrap MS (Thermo Fisher Scientific, Bremen, Germany) equipped with a heated electrospray ionization (HESI-II) ion probe.
LOX was detected as a deprotonated ion [M-H]^− at m/z 245.1175 in negative ion mode. Therefore, negative ion mode was used with the following optimized conditions for LOX: spray voltage of 2.5 kV, capillary temperature of 320 °C, auxiliary gas at 12 aux unit, aux gas heater temperature of 200 °C, sheath gas at 35 aux units, and S-lens RF level of 50. LOX and its metabolites were separated using a 150 mm × 2.1 mm, 2.6-μm reverse-phase liquid chromatography column, Kinetex® C18 column (Phenomenex, CA, USA) at 40 °C. Furthermore, MS-grade solvents were used as the mobile phase in gradient elution mode: 0.1% aqueous formic acid as Solvent A and 0.1% formic acid in ACN as Solvent B. The flow was set to 0.22 mL/min with a gradient condition of Solvent B as 10% between 0 and 0.5 min, 10–50% between 0.5 and 21.5 min, 50–95% between 21.5 and 22.5 min, 95% between 22.5 and 25.5 min, 95–10% between 25.5 and 25.6 min, and 10% between 25.6 and 30 min.

[4] = pretreated DEX 40 mg/kg i.p. 3 days
[5] = pretreated DEX 40 mg/kg i.p. 3 days, read-out: AUC(0–60) (converted)
[6] = pretreated KTC 60 mg/kg i.p. single dose
[7] = pretreated VH (10% ethanol) i.p. single dose
[8] = pretreated VH (10% ethanol) i.p. single dose, read-out: AUC(0–60) (converted)
[9] = pretreated VH (corn oil) i.p. 3 days
[10] = pretreated VH (corn oil) i.p. 3 days, read-out: AUC(0–60) (converted)

| Compound | AUC(0-inf) [1, 4] [ng·h/mL] | AUC(0-t) [1, 5] [ng·h/mL] | Cmax [1, 4] [ng/mL] | half-life [1, 4] [min] | Tmax [1, 4] [min] | AUC(0-inf) [1, 6] [ng·h/mL] | AUC(0-t) [1, 6] [ng·h/mL] | Cmax [1, 6] [ng/mL] | half-life [1, 6] [min] | Tmax [1, 6] [min] | AUC(0-inf) [1, 7] [ng·h/mL] | AUC(0-t) [1, 8] [ng·h/mL] | Cmax [1, 7] [ng/mL] | half-life [1, 7] [min] | Tmax [1, 7] [min] | AUC(0-inf) [1, 9] [ng·h/mL] | AUC(0-t) [1, 10] [ng·h/mL] | Cmax [1, 9] [ng/mL] | half-life [1, 9] [min] | Tmax [1, 9] [min] | further results |
| --- | --- | --- | --- | --- | --- | --- | --- | --- | --- | --- | --- | --- | --- | --- | --- | --- | --- | --- | --- | --- | --- |
| CC(C(=O)O)c1ccc(CC2CCCC2=O)cc1 (centres unmarked) [LOX, 2-(4-((2-Oxocyclopentyl)methyl)phenyl)propanoic acid, reference compound] | 937 | 892 | 2500 ± 200 | 12 ± 0.7 | 5 | 1150 | 1110 | 3500 ± 500 | 12.2 ± 0.9 | 5 | 985 | 912 | 2700 ± 300 | 14.6 ± 1.1 | 5 | 1700 | 1600 | 4800 ± 900 | 14.9 ± 0.6 | 5 | Detection in plasma at later time points ([1]; blood collected for up to 240 min after LOX 20 mg/kg oral): not detected after 60 min; Effect on the metabolism of tacrolimus [2]: slightly inhibited; Relative concentration in plasma (DEX average % of area, VH corn oil = 100) [3]: 74.1% and 74.1 ± 6.3%; Relative concentration in plasma (KTC average % of area, VH 10% ethanol = 100) [3]: 178.2% and 178.2 ± 8.3% |
| C[C@H](C(=O)O)c1ccc(C[C@H]2CCC[C@@H]2O)cc1 [trans-LOX, (2S)-2-[4-[[(1R,2S)-2-hydroxycyclopentyl]methyl]phenyl]propanoic acid] | 1430 | 1130 | 2100 ± 200 | 26.4 ± 1.6 | 10.4 | 1580 | 1340 | 3100 ± 300 | 19.8 ± 0.7 | 11.7 | 1520 | 1170 | 2100 ± 200 | 26 ± 0.5 | 11.6 | 2580 | 2290 | 4400 ± 500 | 18.2 ± 0.6 | 9.1 | Relative concentration in plasma (DEX average % of area, VH corn oil = 100) ([3]; listed as M1): 80.07%; Relative concentration in plasma (KTC average % of area, VH 10% ethanol = 100) [3]: 158.9 ± 11.9%; Relative concentration in plasma (KTC average % of area, VH 10% ethanol = 100) ([3]; listed as M1): 158.93% |
